Columns and labels:
[1] = system: HEK293T cell aminopeptidase activity (Leu-AMC cleavage); experiment: Aminopeptidase assay with Leu-AMC in HEK293T cell extracts; type: biochemical, human; conditions: HEK293T cell extract, 10 µM inhibitor
Description: (§1) All enzyme assays described below were performed in the linear range of the assay, as determined from time-course studies. HEK293T cells were lysed by sonication in 50 mM TrisHCl buffer, pH 7.5, containing 40 mM KCl, 5 mM MgCl2, 0.5 mM ATP, and 1 mM DTT (Buffer 1).
(§2) To measure TPP2, the fluorescent substrate was Ala-Ala-Phe-AMC. Aminopeptidase (AP) assays were performed with Leu-AMC and Ala-AMC, which detect leucine aminopeptidase (LAP), puromycin-sensitive aminopeptidase (PSAP), and other enzymes. To measure the effect of aminopeptidase/proteasome inhibitors on cleavage of Ala-Ala-Phe-AMC and Leu-AMC, 1∶50 dilution of the cell extract was pre-incubated with the inhibitor and Buffer 1 for 30 min, followed by addition of 100 µM final concentration of the respective substrate. For Ala-AMC, the same dilution of the cell extract was pre-incubated with the inhibitor and 50 mM MOPS buffer, pH 7.5, containing 40 mM KCl, 5 mM MgCl2, 0.5 mM ATP, and 1 mM DTT (Buffer 2), followed by addition of 100 µM final concentration of the substrate. After incubation at 37°C for 1 hour, enzyme activity was quantified by fluorescence measurement of the substrate (380 nm excitation, 460 nm emission).
(§3) Figure 7 Effect of aminopeptidase inhibitors on Ala-AMC and Leu-AMC cleavage. HEK 293T cell extract (panels A–D) or recombinant PSAP (panels E–F) were treated with increasing concentrations of bestatin or puromycin for 30 minutes followed by the addition of substrate and incubation for 1 hour. Enzyme activity was determined by fluorescence measurement of AMC and expressed as percentage enzyme activity relative to the control without inhibitor. (A) Bestatin inhibition of HEK293T cell extract assayed with Ala-AMC. (B) Bestatin inhibition of HEK293T cell extract assayed with Leu-AMC. (C) Puromycin inhibition of HEK293T cell extract assayed with Ala-AMC. (D) Puromycin inhibition of HEK293T cell extract assayed with Leu-AMC. (E) Puromycin inhibition of purified PSAP assayed with Ala-AMC. (F) Puromycin inhibition of purified PSAP assayed with Leu-AMC. Error bars show standard error of mean (n = 4), points without error bars had error ranges smaller than the symbol size. Statistical analysis was performed using Student’s t-test: *, p≤0.05; **, p≤0.01; ***, p≤0.001; ns, no significant difference (p>0.05) versus the control.
(§4) Figure 8 Effect of proteasome inhibitors on Ala-AMC and Leu-AMC cleavage. HEK 293T cell extract or recombinant PSAP was treated with 10 µM of each of the proteasome inhibitors for 1 hour in addition to a 30 min pre-incubation without the substrate. Enzyme activity was determined by fluorescence measurement of AMC and expressed as percentage enzyme activity relative to the control without inhibitor. Panels A and B represent the effect of proteasome inhibitors on cleavage of Ala-AMC and Leu-AMC respectively, in HEK293T cell extract. […] Error bars show standard error of mean (n = 4). Statistical analysis was performed using Student’s t-test: *, p≤0.05; **, p≤0.01; ***, p≤0.001; ns, no significant difference (p>0.05) versus the control.

[2] = target: T1, proteasome (beta 5, chymotrypsin-like activity) in HEK293T cell extract (Homo sapiens, UniProt P20618+P28074); experiment: Proteasome activity in HEK293T cell extracts with beta 5-selective substrate Suc-Leu-Leu-Val-Tyr-AMC; type: biochemical
T1 construct: endogenous in cells; host or cells: HEK293T
Description: as §1
To measure proteasome activity, a 1∶50 dilution of the cell extract was pre-incubated with the inhibitor and Buffer 1 for 30 min, followed by addition of 100 µM final concentration of the proteasome substrate succinyl-Leu-Leu-Val-Tyr-7-amino-4-methylcoumarin (Suc-Leu-Leu-Val-Tyr-AMC). After incubation at 37°C for 1 hour, proteasomal activity was quantified by fluorescence measurement of the substrate (380 nm excitation, 460 nm emission).
Figure 2 Inhibition of proteasome activity in HEK293T cells with various proteasome inhibitors. HEK293T cell extract was treated with increasing concentrations of the indicated compound for […] and incubation for 1 hour […]. Enzyme activity was determined by fluorescence measurement of AMC. The resulting activity is expressed as percent enzyme activity relative to the control reaction without inhibitor.

[3] = system: HEK293T cell aminopeptidase activity (Ala-AMC cleavage); experiment: Aminopeptidase assay with Ala-AMC in HEK293T cell extracts; type: biochemical, human; conditions: HEK293T cell extract, 10 µM inhibitor
Description: as §1, §2, §3, §4

For `CN1C/C(=C/c2ccc(B(O)O)cc2)C(=O)/C(=C\c2ccc(B(O)O)cc2)C1` [AM114, reference compound], the “effect on cleavage of Leu-AMC” value [1] was “without effect”, the “potency relative to clasto-Lactacystin β-lactone (fold less potent)” value ([2]; Suc-Leu-Leu-Val-Tyr-AMC) was “approximately 10 fold” and the “inhibition of proteasome activity at the highest concentration tested” value ([2]; highest concentration tested) was no more than 35%. The “effect on cleavage of Ala-AMC” value [3] was “without effect”.

— PMC4117522, “Proteasome Inhibitors Alter Levels of Intracellular Peptides in HEK293T and SH-SY5Y Cells” (PLoS ONE, 2014)
